This note sets out measurements from PubChem BioAssay (NCI).

Test in all cases: NCI-60 cell line screen, 48 h
Experiment [1] deals with HL-60(TB) leukemia.
Experiment [2] relates to KM12 colon.
For experiment [3], the system named is M14 melanoma.
In experiment [4] the test system is MOLT-4 leukemia.
Experiment [5] has as its system NCI-H522 lung.
The test system of experiment [6] is OVCAR-5 ovarian.
Experiment [7] deals with SF-539 CNS.
Experiment [8] concerns SNB-75 CNS.
Experiment [9] has as its system UACC-257 melanoma.
The test system of experiment [10] is UO-31 renal.

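Following 48 hours of exposure in 96-well plates, responses at five concentrations were used to interpolate endpoints linearly. TGI is the concentration that stops growth completely.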 Bounds are passed on as bounds.

As for `CC(O)C(CO)NC(=O)C1CSSCC(NC(=O)C(N)Cc2ccccc2)C(=O)NC(Cc2ccccc2)C(=O)NC(Cc2c[nH]c3ccccc23)C(=O)NC(CCCCN)C(=O)NC(C(C)O)C(=O)N1` (stereo not given), the TGI in [1], in experiment [2], in [3], in [4], in experiment [5] and in [6] was greater than 100 µM throughout. In addition, the TGI in [7], in experiment [8], in experiment [9] and in experiment [10] was greater than 100 µM each time.

As to `CC(=O)C1=C(C)N(c2ccccc2)C2(O)C3=C(C(=O)c4ccccc4C3=O)C(O)=CC12Cl` (stereo not given), the TGI in experiment [1] was 49 µM; in experiment [2], 24.6 µM; in [3], greater than 100 µM; in experiment [4], greater than 100 µM; in experiment [5], 5.81 µM; in [6], greater than 100 µM. Besides, the TGI amounted to 15.6 µM in [7], 16.2 µM in [8], 19.3 µM in [9] and 26.7 µM in [10].
